Experimental data taken from patent US8183364B2, “Substituted porphyrins” (Duke University, priority 2004, dated 2012).

Legend:
[1] = Thin-layer chromatography on silica gel (retention factor Rf, lipophilicity); format: physicochemical; conditions: silica gel TLC, KNO3-saturated H2O/H2O/acetonitrile = 1/1/8; for Rf (compound path/solvent path), metal-free porphyrin (in parenthesis): metal-free ligand of the named Mn porphyrin
Experimental: Uv/vis spectra of porphyrin ligands and their Mn complexes were taken on a Shimadzu UV-2501-PC spectrophotometer at 25° C. Thin-layer chromatography of ligands and Mn complexes was done using silica gel plates with KNO3satH2O/H2O/acetonitrile=1/1/8.
Thin-layer chromatography. All new methoxyporphyrins are more lipophilic than MnTE-2-PyP^5+ and MnTDE-2-ImP^5+.

[2] = Kinetic salt effect on O2.^− dismutation by cytochrome c assay; format: biochemical; conditions: 0.05 M phosphate buffer, pH 7.8, 0-0.4 M NaCl
Experimental: Kinetic salt effect. The dependence of the catalytic rate constant for the O2.^− dismutation upon ionic strength was determined by cytochrome c assay (McCord and Fridovich, J. Biol. Chem. 244:6049 (1969)) in 0.05 M phosphate buffer, pH 7.8 with NaCl ranging from 0 to 0.4 M. In doing this, the effect of ionic strength on the rate of the O2.^−/cytochrome c reaction was corrected for.
Kinetic salt effect. The effect of the ionic strength (μ) on the catalytic rate constant was assessed using eq which is based on Debye-Huckel relation (Hambright et al, J. Porphyrins Phthalocyanines 7:139-146 (2003)) for the effect of the ionic strength of the solution on the activity coefficient of an ion. log k=log kref+2AzAzBμ^1/2/(1+μ^1/2) The k is the rate constant at any given ionic strength, while kref is the rate constant at μ=0. The A is a collection of physical constants with a value of 0.509 and zA and zB are the charges of the reacting species. The equation predicts a linear plot of log k vs μ^1/2/(1+μ^1/2). Eq assumes a coefficient of 1.0 (βai) for μ^1/2 in the denominator, i.e., the distance of the closest approach, ai to be 3 A and β is a physical constant, […]. It is doubtful whether great significance can be attributed to the ai, thus to the product zAzB (Hambright et al, J. Porphyrins Phthalocyanines 7:139-146 (2003)), especially so in the light of the bulkiness, high charge and solvation shell of the metalloporphyrins. Accounting for the mono- and diprotonated phosphates as the major species at pH 7.8 (pKa=7.2), and the concentration of the NaCl, the ionic strength was calculated using equation μ=½ Σ mizi^2 where mi is the molality and zi the charge of the given ion.
The slopes of the plots are −6.48 (MnTE-2-PyP^5+), −7.02 (MnTMOE-2-PyP^5+), −7.38 (MnTDMOE-2-ImP^5+), and −4.15 (MnTnBu-2-PyP^5+). As expected (Hambright et al, J. Porphyrins Phthalocyanines 7:139-146 (2003)), when the reactants are ions of opposite charges, the higher the ionic strength of the solution the lower the rate constants, i.e. the slopes are negative. The slopes of the plots indicate clearly the impact of the local dielectric constant on the kcat. The kcat of the most lipophilic compound, MnTnBu-2-PyP^5+ is 40% less sensitive to the changes in ionic strength of the solution than is the kcat of its methoxyethyl analogue, MnTMOE-2-PyP^5+.

[3] = Oxidative degradation in the presence of ascorbic acid under aerobic conditions; format: physicochemical; conditions: pH 7.8 (0.05 M tris buffer)
In short: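 Mn porphyrins exposed to ascorbic acid under aerobic conditions; percentage of porphyrin degraded within 2 hours recorded.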

[4] = test system: SOD-deficient JI132 E. coli; test: Aerobic growth of SOD-deficient E. coli; format: cell-based; conditions: for aerobic growth of SOD-deficient E. coli: 5AA minimal medium
In short: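 Strains were AB1157 and its sodA sodB mutant JI132, precultured overnight in M9CA at 37 °C, then diluted to 3×10^7 cells/mL in M9CA or, after washing, in 5AA minimal medium. Mn porphyrins at 0.1 to 30 μM were present during aerobic shaking at 37 °C. Growth rate was followed by turbidity at 700 nm.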

[5] = Catalysis of O2.^− dismutation by pulse radiolysis; format: biochemical; conditions: for log kcat for O2^− dismutation: pulse radiolysis, pH 7.8, (22 ± 1) °C, kcat ±30%
Experimental: Catalysis of O2.^− dismutation. The catalytic rate constants for the O2.^− dismutation were determined by pulse radiolysis in 0.05 M phosphate buffer (pH 7.8) at (22±1)° C. as previously described (Batinic-Haberle et al, Inorg. Chem. 40:726 (2001)). In the present study 10 mM formate was used as a scavenger for H. atoms and .OH radicals, which leads first to production of CO2.^− radicals and then to O2.^− radicals. This system is known to lead to conversion of all primary radicals of water radiolysis into O2.^−.
Catalysis of O2.^− dismutation. Pulse radiolysis was used to assess the SOD-like activities of the Mn porphyrins studied. The initial concentration of O2.^− produced by the pulse was about 27 μM, and the concentration of the Mn porphyrin was between 0.5 and 5 μM. The dismutation of O2.^− was followed at 280 nm. The catalytic rate constant was determined from the linear dependence of kobs upon the concentration of the catalyst (Batinic-Haberle et al, Inorg. Chem. 40:726 (2001)). All the new compounds have high O2.^− dismuting ability. The magnitude of the catalysis is due to the interplay of the electron-withdrawing effects of quaternized ortho pyridyl or di-ortho imidazolyl groups, favorable electrostatics, and the solvation of the metal site.

Structure (SMILES) | Rf (compound path/solvent path), metal-free porphyrin (in parenthesis) [1] | Rf (compound path/solvent path), Mn complex [1] | slope of log kcat vs μ^1/2/(1+μ^1/2) [2] | degradation within 2 hours [3] | aerobic growth of SOD-deficient E. coli ([4]; 25 μM) | log kcat for O2^− dismutation [5] | SOD-like activity relative to MnTE-2-PyP^5+ ([5]; vs MnTE-2-PyP^5+) | kcat higher than MnTnBu-2-PyP^5+ ([5]; vs MnTnBu-2-PyP^5+) | aerobic growth of SOD-deficient E. coli ([4]; 3 μM) | protection of SOD-deficient E. coli ([4]; M9CA medium, 3 μM) | protection of E. coli from oxidative stress ([4]; ≦3 μM levels (FIG. 10: 5AA minimal medium))
COCC[n+]1ccccc1-c1c2nc(c(-c3cccc[n+]3CCOC)c3ccc([n-]3)c(-c3cccc[n+]3CCOC)c3nc(c(-c4cccc[n+]4CCOC)c4ccc1[n-]4)C=C3)C=C2.[Mn+3] [MnTMOE-2-PyP^5+, Mn(III) tetrakis 5,10,15,20-tetrakis[N-(2-methoxyethyl)pyridinium-2-yl]porphyrin] | 0.18 | 0.16 | −7.02 | 24% | not far behind | 8.04 | two-fold higher | 6 fold |  |  | 
COCCn1cc[n+](CCOC)c1-c1c2nc(c(-c3n(CCOC)cc[n+]3CCOC)c3ccc([n-]3)c(-c3n(CCOC)cc[n+]3CCOC)c3nc(c(-c4n(CCOC)cc[n+]4CCOC)c4ccc1[n-]4)C=C3)C=C2.[Mn+3] [MnTDMOE-2-ImP^5+, Mn(III) tetrakis 5,10,15,20-tetrakis[N,N′-di(2-methoxyethyl)imidazolium-2-yl]porphyrin] | 0.24 | 0.21 | −7.38 | 2% | not far behind | 7.59 |  |  | the most effective methoxyethyl porphyrin | the most effective (next to n-butyl and n-hexyl) | the most protective
